Test results published in the supplement of paper PMC4862054.

Columns and labels:
Details in all cases: incubation time: 72 h
[1] = test system: BT-549; experiment: normalised response (% of control), CellTiter-Glo; higher = more viable cells (100 = DMSO, 0 = benzethonium chloride kill control)
How it was run: (§1)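 Compound was dispensed into 384-well plates at 5 concentrations in 10-fold steps spanning a 10,000-fold range specific to that compound. Breast cancer cell lines were added as 20 µl suspension and left for 72 h before CellTox Green fluorescence (485/520 nm) and then CellTiter-Glo luminescence, read after 10 min at room temperature. Each reported value is the normalised signal at one concentration, with 0.1 % DMSO set at 100 and a positive kill control at 0 on each plate.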

[2] = test system: HCC1143; experiment: as above
How it was run: as §1

[3] = test system: CAL-85-1; experiment: as above
How it was run: as §1

[4] = test system: MDA-MB-453; experiment: as above
How it was run: as §1

[5] = test system: BT-474; experiment: as above
How it was run: as §1

[6] = test system: MDA-MB-231; experiment: as above
How it was run: as §1

[7] = test system: MCF-10A; experiment: as above
How it was run: as §1

[8] = test system: CAL-120; experiment: as above
How it was run: as §1

[9] = test system: Hs578T; experiment: as above
How it was run: as §1

[10] = test system: DU-4475; experiment: as above
How it was run: as §1

[11] = test system: HCC1937; experiment: as above
How it was run: as §1

[12] = test system: MDA-MB-436; experiment: as above
How it was run: as §1

[13] = test system: SK-BR-3; experiment: as above
How it was run: as §1

[14] = test system: HCC1599; experiment: as above
How it was run: as §1

[15] = test system: CAL-148; experiment: as above
How it was run: as §1

[16] = test system: CAL-51; experiment: as above
How it was run: as §1

[17] = test system: HDQ-P1; experiment: as above
How it was run: as §1

[18] = test system: MFM-223; experiment: as above
How it was run: as §1

[19] = test system: MDA-MB-468; experiment: as above
How it was run: as §1

[20] = test system: BT-549; experiment: normalised response (% of control), CellTox Green; higher = less cell death (100 = DMSO, 0 = benzethonium chloride kill control)
How it was run: as §1

[21] = test system: HCC1143; experiment: as above
How it was run: as §1

[22] = test system: CAL-85-1; experiment: as above
How it was run: as §1

[23] = test system: MDA-MB-453; experiment: as above
How it was run: as §1

[24] = test system: BT-474; experiment: as above
How it was run: as §1

[25] = test system: MDA-MB-231; experiment: as above
How it was run: as §1

[26] = test system: MCF-10A; experiment: as above
How it was run: as §1

[27] = test system: CAL-120; experiment: as above
How it was run: as §1

[28] = test system: Hs578T; experiment: as above
How it was run: as §1

[29] = test system: DU-4475; experiment: as above
How it was run: as §1

[30] = test system: HCC1937; experiment: as above
How it was run: as §1

[31] = test system: MDA-MB-436; experiment: as above
How it was run: as §1

[32] = test system: HCC1599; experiment: as above
How it was run: as §1

[33] = test system: CAL-148; experiment: as above
How it was run: as §1

[34] = test system: CAL-51; experiment: as above
How it was run: as §1

[35] = test system: HDQ-P1; experiment: as above
How it was run: as §1

[36] = test system: MFM-223; experiment: as above
How it was run: as §1

[37] = test system: MDA-MB-468; experiment: as above
How it was run: as §1

SMILES | normalised response [1] | normalised response [2] | normalised response [3] | normalised response [4] | normalised response [5] | normalised response [6] | normalised response [7] | normalised response [8] | normalised response [9] | normalised response [10] | normalised response [11] | normalised response [12] | normalised response [13] | normalised response [14] | normalised response [15] | normalised response [16] | normalised response [17] | normalised response [18] | normalised response [19] | normalised response [20] | normalised response [21] | normalised response [22] | normalised response [23] | normalised response [24] | normalised response [25] | normalised response [26] | normalised response [27] | normalised response [28] | normalised response [29] | normalised response [30] | normalised response [31] | normalised response [32] | normalised response [33] | normalised response [34] | normalised response [35] | normalised response [36] | normalised response [37]
CCCCCCCCc1ccc(CCC(N)(CO)CO)cc1 [Fingolimod] (100 nM) | 95.8% | 100% | 105% | 97.4% | 99.9% | 100% | 105% | 97% | 97.4% | 99.7% | 96% | 100% | 107% | 107% | 101% | 92.5% | 103% | 106% | 107% | 88.7% | 103% | 102% | 109% | 101% | 78.8% | 95.9% | 104% | 110% | 100% | 115% | 97.3% | 111% | 87.9% | 109% | 91.7% | 103% | 122%
C/C(=C\c1csc(C)n1)[C@@H]1C[C@@H]2O[C@]2(C)CCC[C@H](C)[C@H](O)[C@@H](C)C(=O)C(C)(C)[C@@H](O)CC(=O)O1 [Patupilone] (10 nM) | 55.1% | 77.5% | 80.2% | 101% | 94.6% | 97.9% | 89.1% | 105% | 90.9% | 104% | 100% | 79.9% | 99.7% | 114% | 105% | 56% | 98.7% | 107% | 53.4% | 97.3% | 108% | 79.5% | 97.9% | 95.7% | 92.9% | 103% | 93.6% | 84% | 99.5% | 99.4% | 76.8% | 106% | 102% | 29.3% | 110% | 96.3% | 34.5%
NS(=O)(=O)OC[C@@H]1C[C@@H](n2ccc3c(N[C@H]4CCc5ccccc54)ncnc32)C[C@@H]1O [Pevonedistat] (100 nM) | 73.2% | 90.1% | 77.8% | 88.9% | 114% | 118% | 113% | 91.1% | 98.7% | 68.8% | 96.3% | 82.9% | 35.6% | 75.6% | 120% | 51.5% | 102% | 79.1% | 56.2% | 106% | 120% | 81.5% | 112% | 102% | 119% | 108% | 102% | 107% | 97.8% | 119% | 102% | 104% | 94.7% | 36.4% | 99.8% | 65.2% | 128%
CN(C)C[C@@H]1CCn2cc(c3ccccc32)C2=C(C(=O)NC2=O)c2cn(c3ccccc23)CCO1 [Ruboxistaurin] (100 nM) | 102% | 94.7% | 96.6% | 105% | 99.5% | 96.1% | 89.3% | 92.7% | 98% | 95.5% | 95.1% | 98% | 93% | 105% | 94.5% | 105% | 99.3% | 99.8% | 93.8% | 109% | 99.5% | 109% | 92.7% | 98.9% | 112% | 95.6% | 103% | 66.2% | 99.3% | 90% | 79.8% | 96.2% | 102% | 101% | 102% | 103% | 141%
O=C1NC(=O)[C@@H](c2cn3c4c(cccc24)CCC3)[C@@H]1c1c[nH]c2ccccc12 [Tivantinib] (10 nM) | 98.3% | 97.8% | 99.2% | 85% | 104% | 103% | 103% | 96.3% | 92.6% | 104% | 97.6% | 102% | 99.4% | 105% | 98.4% | 106% | 100% | 99.6% | 99.6% | 104% | 105% | 102% | 106% | 97.8% | 105% | 84.5% | 103% | 110% | 100% | 106% | 90.1% | 103% | 78.8% | 102% | 109% | 98.9% | 131%
CC[C@]1(O)C[C@H]2CN(CCc3c([nH]c4ccccc34)[C@@](C(=O)OC)(c3cc4c(cc3OC)N(C=O)[C@H]3[C@@](O)(C(=O)OC)[C@H](OC(C)=O)[C@]5(CC)C=CCN6CC[C@]43[C@@H]65)C2)C1 [Vincristine] (10 nM) | 38.2% | 53.5% | 30.6% | 70.6% | 71% | 76.7% | 60.5% | 66.8% | 82.6% | 86.3% | 75.7% | 70.8% | 17.8% | 63.5% | 64.6% | 86.8% | 71% | 90.8% | 20.9% | 77.1% | 98.8% | 45% | 87.5% | 76.7% | 53.4% | 51.6% | 93.9% | 88.5% | 98.7% | 93.3% | 56% | 90.7% | 71.5% | 73.2% | 44.8% | 94.7% | -5.1%
